According to patent US9216208B2, “Topical ophthalmic peptide formulation” (BCN Peptides, S.A., priority 2009, dated 2015):

Tests used:
[1] = Evaluation of the concentration of topical ophthalmic somatostatin in the retina (Western blot); assay type: in vivo, C57BL/6 mice; conditions: eye drops of example 1, 1 drop of 5 μL twice a day for 5 days in right eye vs placebo in left eye; 2 hours after last dosage; Western blot densitometry
Experimental: Eight-week old C57BL/6 mice were used. The handling and care of the animals was carried out following the Institut de Recerca del Hospital Universitari Vall d'Hebron protocol and the European Economic Community and A.R.V.O. (Association for Research in Vision and Opthalmology) international guidelines (order 86/609/CEE). The animals were kept in individual cages in the animal facilities at a controlled temperature (20°) and humidity (60%), under constant cycles of light-darkness which last 12 hours and had free access to food and drink. The eye drops of somatostatin-14 from example 1 (1 drop of 5 μL) were administered to the right eye and the placebo (saline solution) to the left eye. Two drops were administered per day, one in the morning and another in the evening, for 5 days. The animals were euthanized by cervical dislocation under anesthetic 2 hours after the last dosage. Immediately afterwards the eyeballs were extracted and were frozen at −80° until handling. […] The quantity of somatostatin-14 in the retina was determined by Western blot. […] A densitometric analysis was carried out (Densitometer GS-800. Bio-Rad. Laboratories, Hercules, Calif., USA) and the results are expressed as arbitrary units. […] On control mice, who received the placebo in both eyes, no differences were detected in the concentration of somatostatin between both eyes.

[2] = system: streptozotocin-induced diabetic rats; assay: Electroretinography after topical ocular treatment in diabetic rats; assay type: in vivo, Sprague Dawley rats; parameters: implicit time of the b-wave at 0 db compared to pretreatment: unit not given beside the values; conditions: for difference between the amplitude of the second OP (OP2) of the b-wave at 0 db / implicit time of the b-wave at 0 db compared to pretreatment: STZ 60 mg/kg rats; for difference between the amplitude of the second OP (OP2) of the b-wave at 0 db: FIG. 2; for implicit time of the b-wave at 0 db compared to pretreatment: after 14 days of treatment; for b-wave amplitude at −10 db and 0 db / b-wave amplitude at −30 db: compared to the diabetic group
Experimental: (§1) Streptozotocin (STZ), 60 mg/Kg, was administered to Sprague Dawley rats. The animals were divided in four groups as detailed in Table 1:
(§2) Two days after STZ was administered, animals were treated daily with one or two drops of vehicle (Group 2), eye drops of example 4 (Group 3) or eye drops of example 5 (Group 4) for additionally 14 days. Healthy control animals were only treated daily with one or two drops of vehicle (Group 1).
Electroretinography is a technique used clinically to evaluate retinal function in diabetic retinopathy. Several parameters can be affected in early stages of the disease: implicit time, amplitude and oscillatory potentials [Tzekov et al., Survey of Ophthalmology, 1999, 44(1): 53-60]. The increment of the implicit time and diminishment of amplitude of the oscillatory potentials (OPs) are also observed in streptozotocin-induced diabetic rats [Hancok et al., Investigative Ophthalmology & Visual Science, 2004, 45(3): 1002-1008].

[3] = system: Glial Fibrillar Protein (GFAP); assay: Glial activation by GFAP immunofluorescence (confocal microscopy) in retina of diabetic rats; assay type: in vivo, Sprague Dawley rats; conditions: for glial cell activation (GFAP expression, confocal images): day 14, ganglion cell layer, FIG. 3; for GFAP fluorescence value: day 14, normalized to the analysed area (21705.33 μm^2), diabetic Group 2 6871±159, healthy Group 1 2095±26
Experimental: as §1, §2
(§3) On day 14, the animals were sacrificed and ocular tissues paraffined. Glial activation and number of apoptotic cells were evaluated as markers of the first step in the development of diabetic retinopathy: retinal neurodegeneration [Carrasco et al., Diabetes Care; 2007, 30(11): 1-7].
Glial activation was determined analysing Glial Fibrillar Protein (GFAP) immunofluorescence by confocal microscopy. Ocular sections of 7 μm thickness were fixed on high adherent coverslips (Visionbiosystems, Newcastle Upon Tyne, UK). They were desparaffined, rehydrated and washed in phosphate buffer saline (PBS). Unspecific unions were blocked incubating the samples for 1 h in PBS 1% BSA (Bovine Serum Albumin) 0.5% Triton X-100. Thereafter, the primary rabbit anti-human GFAP antibody (Sigma, Madrid, Spain) diluted in the blocking buffer (1:100) was incubated for 36 h at 4° C. After three washings for 5 min with PBS, sections were incubated with a secondary antibody anti […] labelled with Alexa Fluor® 488 (Invitrogen, Eugene, Oreg.) for 1 h at room temperature. Labelled sections were washed and mounted with fluorescent medium containing 4,6-diamidino-2-phenylindole (DAPI) for staining cell nuclei (Vector Laboratories, Burlingame, Calif.). The sections positives for GFAP were captured in a confocal microscope (FV1000, Olympus. Hamburg, Germany) obtaining optical sections with a 488 nm laser for Alexa 488 and a 405 nm laser for DAPI. GFAP fluorescence was quantified in each image with the Fluoview ASW 1.4 software (Olympus, Hamburg, Germany). Results were normalized to the analysed area (21705.33 μm^2).

[4] = system: retinal cells of streptozotocin-induced diabetic rats; assay: Degree of apoptosis of the retina by TUNEL in diabetic rats; assay type: in vivo, Sprague Dawley rats; conditions: for retinal degeneration (TUNEL positive cells, confocal images): after 14 days of treatment, FIG. 4; for % Apoptotic cells GCL: ganglion cell layer; for % Apoptotic cells GCL / % Apoptotic cells INL / % Apoptotic cells ONL / % Apoptotic cells RPE: 14 days of treatment; for % Apoptotic cells INL: inner nuclear layer; for % Apoptotic cells ONL: outer nuclear layer; for % Apoptotic cells RPE: retinal pigment epithelium
Experimental: as §1, §2, §3
The evaluation of the degree of apoptosis of the retina after 14 days of treatment was done by using the TUNEL (“Terminal Transferase dUTP Nick-End Labeling”) technique. The In Situ Cell Death Detection Kit (Roche Diagnostics, Mannheim, Germany) was used. Ocular sections were desparaffined, rehydrated and washed in PBS. Three confocal images (40×) corresponding to a 317.13 μm×317.13 μm surface were obtained for each section. The total number of nuclei and nuclei positive for TUNEL were quantified with the Image J software (http://rsbweb.nih.gov/ij). Staining with propidium iodide (PI) was done for examining the nucleus morphology and discard false positives. […] Retinal degeneration correlated with a higher number of apoptotic cells (brightest labeling means TUNEL positive) observed in streptozotocin-induced diabetic rats (Group 2).
The increment in the percentage of apoptotic cells is significant in diabetic rats (Group 2). Topical ocular treatment with somatostatin (Group 3) or octreotide (Group 4) reduced the number of apoptotic cells till control levels (Group 1).

Compound	amount of somatostatin in the retina [1]	difference between the amplitude of the second OP (OP2) of the b-wave at 0 db ([2]; Left eye (2 drops per day))	implicit time of the b-wave at 0 db compared to pretreatment ([2]; Left eye (2 drops per day))	difference between the amplitude of the second OP (OP2) of the b-wave at 0 db ([2]; Right eye (1 drop per day))	implicit time of the b-wave at 0 db compared to pretreatment ([2]; Right eye (1 drop per day))	b-wave amplitude at −10 db and 0 db [2]	b-wave amplitude at −30 db [2]	glial cell activation (GFAP expression, confocal images) [3]	GFAP fluorescence value [3]	retinal degeneration (TUNEL positive cells, confocal images) [4]	% Apoptotic cells GCL [4]	% Apoptotic cells INL [4]	% Apoptotic cells ONL [4]	% Apoptotic cells RPE [4]
C[C@H](N)C(=O)NCC(=O)N[C@H]1CSSC[C@@H](C(=O)O)NC(=O)[C@H](CO)NC(=O)[C@H]([C@@H](C)O)NC(=O)[C@H](Cc2ccccc2)NC(=O)[C@H]([C@@H](C)O)NC(=O)[C@H](CCCCN)NC(=O)[C@H](Cc2c[nH]c3ccccc23)NC(=O)[C@H](Cc2ccccc2)NC(=O)[C@H](Cc2ccccc2)NC(=O)[C@H](CC(N)=O)NC(=O)[C@H](CCCCN)NC1=O [somatostatin, somatostatin-14]	greater in the treated eye on both animals	68.7	4.9	44.8	9.0	prevented the diminishment	prevented the diminishment	prevented glial cell activation	2514±90	prevented retinal degeneration	14%	1%	3%	6%
C[C@@H](O)[C@@H]1NC(=O)[C@H](CCCCN)NC(=O)[C@@H](Cc2c[nH]c3ccccc23)NC(=O)[C@H](Cc2ccccc2)NC(=O)[C@@H](NC(=O)[C@H](N)Cc2ccccc2)CSSC[C@@H](C(=O)N[C@H](CO)[C@@H](C)O)NC1=O [octreotide]		55.1	1.1	45.5	8.8	effective only at the highest dose	prevented the diminishment	prevented glial cell activation	1696±48	prevented retinal degeneration	7%	0.1%	5%	11%
